Converted amounts (≈) assume the structure as drawn.
Key:
[1] = system: Malassezia furfur (CBS 7982); experiment: In vitro antifungal potency (MIC), growth read by absorbance at 600 nm; type: cell-based; settings: for MIC: CBS7982, read-out: MIC (ppm) against Malassezia furfur; for MIC / MIC (ppm) against Malassezia furfur: mDixon medium, 31° C., approximately 72 hours
Procedure: (§1) Malassezia furfur (CBS 7982), Malassezia sympodialis (ATCC 42132), and Malassezia pachydermatis (CBS 1879) is grown for approximately 24 hours in a 250 ml vent cap polycarbonate Erlenmeyer flask containing approximately 100 ml of mDixon medium and 5 ml of a fully grown Malassezia culture is prepared using the same conditions as described. The cells are diluted by mixing 2.5 ml of the 24 hour-old culture per 50 ml of mDixon medium. A Versette robot (ThermoFisher Scientific) is used to transfer 292.5 μl of the dilute cells into each well of a Beckman 267007 polypropylene round bottom deep well plate.
(§2) All compounds are sourced from Sigma Aldrich (St. Louis, Mo.) and prepared as 10 mg/ml in DMSO. A semipermeable aeraseal membrane is applied to the plate which is then covered with water-soaked cotton batting. The samples are shaken at 31° C. on a Heidolph Titramax 100 shaker at 1500 rpm for approximately 72 hours. The plates are shaken at 1250 rpm on an Eppendorf MixMate shaker to disperse the cells before 200 μl of cells is transferred to a Corning 3596 polystyrene plate. The samples are shaken again at 950 rpm on a MixMate shaker before the absorbance at 600 nm is read using a Molecular Devices SpectraMax plate reader.

[2] = system: Malassezia pachydermatis (CBS 1879); experiment: as above; type: cell-based; settings: mDixon medium, 31° C., approximately 72 hours; for MIC: Malassezia pachydermatis, CBS1879, read-out: MIC (ppm) against Malassezia pachydermatis
Procedure: as §1, §2

[3] = system: Malassezia sympodialis (ATCC 42132); experiment: as above; type: cell-based; settings: mDixon medium, 31° C., approximately 72 hours; for MIC: Malassezia sympodialis, ATCC42132, read-out: MIC (ppm) against Malassezia sympodialis
Procedure: as §1, §2

[4] = system: Candida albicans (ATCC 10231); experiment: as above; type: cell-based; settings: Sabouraud Broth, 31° C., evaluated at concentrations up to 250 ppm; for MIC: Candida albicans, ATCC10231, read-out: MIC (ppm) against Candida albicans
Procedure: Candida albicans (ATCC 10231) is grown overnight in Sabouraud Broth (SDB). 190 μl of SDB is added per well of a Corning 3596 polystyrene plate followed by 5 μl of test material as two-fold dilutions in DMSO and 5 μl C. albicans. The cells are incubated at 31° C., without shaking, and wrapped in wet cotton batting. The plates are shaken for 30 seconds at 950 rpm on a MixMate shaker. The absorbance at 600 nm is read on a Spectramax plate reader.
as §2

[5] = system: Aspergillus brasiliensis (ATCC 16404); experiment: In vitro antifungal potency (MIC), growth graded visually; type: cell-based; settings: spores in SDB, 25° C., approximately 96 h; for MIC: Aspergillus brasiliensis, ATCC16404, read-out: MIC (ppm) against Aspergillus brasiliensis
Procedure: Aspergillus brasiliensis (ATCC 16404): Aspergillus spores are prepared by inoculating a Sabouraud agar plate and incubating at 25° C. for 6-10 days, after which, 10 mL of Saline+Tween-80 is added to dislodge the spores. The suspension is then filtered through 2 layers of sterile gauze. The spores are diluted two-fold in SDB. 190 μl of SDB is added to a Corning 3596 polystyrene plate followed by 5 μl of test compound per well and 5 μl of the diluted spores. The plates are incubated at 25° C. for approximately 96 h at high humidity. Growth is graded visually as either growth or no growth.
as §2

Malassezia yeasts = experiment: In vitro antifungal potency (MIC), statements across the Malassezia species tested; type: cell-based
Procedure: as §1, §2

[6] = cited from earlier work

| MIC (ppm) against Malassezia furfur [1] | MIC (ppm) against Malassezia pachydermatis [2] | MIC (ppm) against Malassezia sympodialis [3] | MIC (ppm) against Candida albicans [4] | MIC (ppm) against Aspergillus brasiliensis [5] | times less potent than azoxystrobin (MIC against Malassezia furfur) ([1]; ratio of MICs, Malassezia furfur) | Structure (SMILES) | MIC ([1]; Malassezia furfur) | MIC [2] | MIC [3] | MIC [4] | MIC [5] | MIC against Malassezia yeasts (all species tested) (Malassezia yeasts; M. furfur, M. sympodialis, M. pachydermatis) | times more potent than pyraclostrobin (MIC against Malassezia, in all cases) (Malassezia yeasts; ratio of MICs, all three Malassezia species) | solubility in water [6] |
| --- | --- | --- | --- | --- | --- | --- | --- | --- | --- | --- | --- | --- | --- | --- |
| – | – | – | – | – | – | CO/N=C(/C1=NOCCO1)c1ccccc1Oc1ncnc(Oc2ccccc2Cl)c1F [Fluoxastrobin, fluoxastrobin] | 3.91 µg/mL (≈ 8.52 µM) | 7.81 µg/mL (≈ 17 µM) | 1.95 µg/mL (≈ 4.25 µM) | > 250 µg/mL | 0.49 µg/mL (≈ 1.07 µM) | – | – | – |
| – | – | – | – | – | – | CO/N=C(/C(=O)OC)c1ccccc1COc1ccccc1C [Kresoxim-methyl, kresoxim methyl] | 15.6 µg/mL (≈ 49.9 µM) | 31.2 µg/mL (≈ 99.7 µM) | 3.91 µg/mL (≈ 12.5 µM) | > 250 µg/mL | 0.98 µg/mL (≈ 3.13 µM) | – | – | – |
| 31.25 ppm | 125 ppm | 7.81 ppm | >250 ppm | 31.25 ppm | 64 times | CNC(=O)/C(=N/OC)c1ccccc1CO/N=C(C)/C(=N/OC)C(/C)=N/OC [Orysastrobin, orysastrobin] | – | – | – | – | – | – | – | – |
| – | – | – | – | – | – | COC(=O)N(OC)c1ccccc1COc1ccn(-c2ccc(Cl)cc2)n1 [Pyraclostrobin, pyraclostrobin] | 1.95 µg/mL (≈ 5.03 µM) | 3.91 µg/mL (≈ 10.1 µM) | 0.49 µg/mL (≈ 1.26 µM) | > 250 µg/mL | 0.02 µg/mL (≈ 0.0516 µM) | – | – | – |
| – | – | – | – | – | – | CON=C(C(=O)OC)c1ccccc1CON=C(C)c1cccc(C(F)(F)F)c1 [Trifloxystrobin, trifloxystrobin] | 15.6 µg/mL (≈ 38.3 µM) | 31.2 µg/mL (≈ 76.5 µM) | 1.95 µg/mL (≈ 4.78 µM) | > 250 µg/mL | 31.2 µg/mL (≈ 76.5 µM) | – | – | – |
| 7.81 ppm | 31.25 ppm | 1.95 ppm | >250 ppm | 0.24 ppm | – | CNC(=O)/C(=N/OC)c1ccccc1COc1cc(C)ccc1C [Dimoxystrobin, dimoxystrobin] | – | – | – | – | – | – | – | – |

| Structure (SMILES) | MIC (ppm) against Malassezia furfur [1] | MIC (ppm) against Malassezia pachydermatis [2] | MIC (ppm) against Malassezia sympodialis [3] | MIC (ppm) against Candida albicans [4] | MIC (ppm) against Aspergillus brasiliensis [5] | times less potent than azoxystrobin (MIC against Malassezia furfur) ([1]; ratio of MICs, Malassezia furfur) | MIC ([1]; Malassezia furfur) | MIC [2] | MIC [3] | MIC [4] | MIC [5] | MIC against Malassezia yeasts (all species tested) (Malassezia yeasts; M. furfur, M. sympodialis, M. pachydermatis) | times more potent than pyraclostrobin (MIC against Malassezia, in all cases) (Malassezia yeasts; ratio of MICs, all three Malassezia species) | solubility in water [6] |
| --- | --- | --- | --- | --- | --- | --- | --- | --- | --- | --- | --- | --- | --- | --- |
| CO/C=C(/C(=O)OC)c1ccccc1Oc1cc(Oc2ccccc2C#N)ncn1 [Azoxystrobin] | 0.49 ppm | 0.98 ppm | 0.12 ppm | >250 ppm | 0.24 ppm | – | – | – | – | – | – | less than 1.0 ppm | 4 times | low |
